Reference: patent US20060183189A1, “Regulatable gene expression in mammalian cells and mammals” (priority 2003, published 2006)

How the values were obtained:
AlcR = biological target: T1, AlcR (Emericella nidulans, UniProt P21228); assay: Gas-phase controlled SEAP expression of stable CHO-K1-derived cell line in a bioreactor; type: cell-based, Aspergillus nidulans; details: 2.5 L bioreactor, gassing in air containing 340 ppm acetaldehyde, then 40 ppm; shut down by sparging with pure air
T1 construct: excising alcR (EcoRI/SalI) from an alcR cDNA containing vector; expressed in transfected cells; host or cells: CHO-K1
T1 sequence (P21228 whole entry): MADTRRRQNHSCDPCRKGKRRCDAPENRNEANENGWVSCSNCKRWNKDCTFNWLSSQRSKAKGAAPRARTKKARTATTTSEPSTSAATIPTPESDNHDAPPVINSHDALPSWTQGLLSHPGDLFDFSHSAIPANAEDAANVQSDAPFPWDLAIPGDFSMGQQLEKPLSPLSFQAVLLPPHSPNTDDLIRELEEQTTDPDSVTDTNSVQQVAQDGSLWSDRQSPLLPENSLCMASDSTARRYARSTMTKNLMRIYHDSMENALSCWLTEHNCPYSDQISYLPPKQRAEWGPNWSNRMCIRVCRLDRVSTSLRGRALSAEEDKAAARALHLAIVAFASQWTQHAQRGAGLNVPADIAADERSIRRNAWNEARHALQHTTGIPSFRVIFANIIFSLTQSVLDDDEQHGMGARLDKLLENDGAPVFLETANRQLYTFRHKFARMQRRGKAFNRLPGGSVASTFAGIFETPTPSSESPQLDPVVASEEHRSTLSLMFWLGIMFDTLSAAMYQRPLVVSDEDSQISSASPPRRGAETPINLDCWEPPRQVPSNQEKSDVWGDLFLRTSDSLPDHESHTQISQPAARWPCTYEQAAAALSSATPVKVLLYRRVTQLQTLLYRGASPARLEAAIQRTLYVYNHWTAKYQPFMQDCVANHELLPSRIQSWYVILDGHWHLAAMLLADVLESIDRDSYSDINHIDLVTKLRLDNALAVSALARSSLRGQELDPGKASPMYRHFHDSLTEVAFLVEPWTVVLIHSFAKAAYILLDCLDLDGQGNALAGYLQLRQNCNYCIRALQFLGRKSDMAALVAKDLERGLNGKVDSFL
Description: A stable CHO-K1-derivative engineered for acetaldehyde-inducible SEAP expression is cultivated in a bioreactor. […] The specific SEAP productivities (μU/10^6 cells/h) are indicated over time (h).
A CHO-K1-derived cell line is constructed for gas-inducible expression of a secreted alkaline phosphatase (SEAP) by stable transfection/transduction with plasmid pWW192 (see Example 1) and a pWW506-based viral particle (see Example 4).

AlkS = biological target: T2, AlkS (Ectopseudomonas oleovorans, UniProt P17051); assay: AlkS-based regulatable SEAP expression in CHO-K1 cells; type: cell-based, Pseudomonas putida (oleovorans); details: CHO-K1 cells transfected with AlkS and PSV40 promoter with 8 OP repeats; upon addition of regulating compound
T2 construct: expressed in transfected cells; host or cells: CHO-K1
T2 sequence (P17051 whole entry): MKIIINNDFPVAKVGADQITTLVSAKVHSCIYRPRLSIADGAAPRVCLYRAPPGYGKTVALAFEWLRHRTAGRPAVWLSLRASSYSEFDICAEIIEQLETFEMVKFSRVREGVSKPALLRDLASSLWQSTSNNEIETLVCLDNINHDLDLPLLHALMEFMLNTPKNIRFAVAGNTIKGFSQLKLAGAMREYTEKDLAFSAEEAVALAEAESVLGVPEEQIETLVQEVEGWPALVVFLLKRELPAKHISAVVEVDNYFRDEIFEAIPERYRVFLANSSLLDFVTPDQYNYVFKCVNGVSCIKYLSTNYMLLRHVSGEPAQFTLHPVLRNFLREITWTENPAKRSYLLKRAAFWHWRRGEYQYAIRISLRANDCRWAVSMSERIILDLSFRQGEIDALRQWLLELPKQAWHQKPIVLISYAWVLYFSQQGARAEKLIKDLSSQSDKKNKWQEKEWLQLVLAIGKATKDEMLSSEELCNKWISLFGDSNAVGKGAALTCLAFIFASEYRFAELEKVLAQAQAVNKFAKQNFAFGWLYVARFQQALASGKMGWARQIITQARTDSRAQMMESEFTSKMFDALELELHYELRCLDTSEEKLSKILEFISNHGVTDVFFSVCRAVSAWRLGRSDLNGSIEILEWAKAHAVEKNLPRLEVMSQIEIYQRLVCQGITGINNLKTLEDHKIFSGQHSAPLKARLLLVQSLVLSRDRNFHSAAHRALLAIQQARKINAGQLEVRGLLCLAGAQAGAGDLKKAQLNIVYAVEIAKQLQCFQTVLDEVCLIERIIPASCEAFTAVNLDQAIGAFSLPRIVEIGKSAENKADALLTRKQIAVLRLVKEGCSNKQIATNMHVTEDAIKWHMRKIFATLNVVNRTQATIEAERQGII
Description: A regulatable expression system responsive to liquid or gaseous inducers based on bacterial elements is constructed by PCR-cloning the Pseudomonas putida (oleovorans)-derived RTF AlkS (Smiths et al., 2001. Plasmid 46, 16-24) into the mammalian expression vector pEF6V5-His TOPO (Invitrogen, Carlsbad, Calif.). The responsive promoter is constructed by cloning 8 repeats of the AlkS-specific OP site downstream of the simian virus 40 promoter PSV40 followed by a reporter gene, the secreted alkaline phosphatase SEAP.
Transfection of the plasmids encoding AlkS and the responsive promoter controlling SEAP expression in CHO-K1 cells results in SEAP expression levels typical for PSV40-driven constitutive expression.

| Structure (SMILES) | SEAP expression (AlcR) | SEAP expression (AlkS) |
| --- | --- | --- |
| CC=O [acetaldehyde] | induced | – |
| CCOCC [ethyl ether] | – | decreases in a dose-dependent manner |
| O=C(C1CC1)C1CC1 [dicyclopropylketone] | – | decreases in a dose-dependent manner |
| CCOC(C)=O [ethyl acetate] | – | decreases in a dose-dependent manner |
